Assay results published in the NIST ThermoML archive (doi:10.1021/je900596d).
Numbers after ± are expanded uncertainties.

Settings: Vibrating tube method

## FC(F)=C(F)C(F)(F)F [hexafluoropropene]
358 K, 4209.5 kPa, Liquid
  mass density: 959.82 ± 1.1 kg/m3
358 K, 4244 kPa, Liquid
  mass density: 962.07 ± 1.1 kg/m3
358 K, 4311.4 kPa, Liquid
  mass density: 966.64 ± 1.1 kg/m3
358 K, 4345.1 kPa, Liquid
  mass density: 968.66 ± 1.1 kg/m3
358 K, 4377.8 kPa, Liquid
  mass density: 970.84 ± 1.1 kg/m3
358 K, 4412.5 kPa, Liquid
  mass density: 972.94 ± 1.1 kg/m3
358 K, 4446.5 kPa, Liquid
  mass density: 974.92 ± 1.1 kg/m3
358 K, 4462.6 kPa, Liquid
  mass density: 975.95 ± 1.1 kg/m3
358 K, 4478.8 kPa, Liquid
  mass density: 976.81 ± 1.1 kg/m3
358 K, 4496.2 kPa, Liquid
  mass density: 977.89 ± 1.1 kg/m3
358 K, 4532.3 kPa, Liquid
  mass density: 980.04 ± 1.1 kg/m3
358 K, 4565.8 kPa, Liquid
  mass density: 981.81 ± 1.1 kg/m3
358 K, 4599.8 kPa, Liquid
  mass density: 983.7 ± 1.1 kg/m3
358 K, 4632.6 kPa, Liquid
  mass density: 985.44 ± 1.1 kg/m3
358 K, 4668.1 kPa, Liquid
  mass density: 987.45 ± 1.1 kg/m3
358 K, 4740 kPa, Liquid
  mass density: 991.23 ± 1.1 kg/m3
358 K, 4775.8 kPa, Liquid
  mass density: 993.1 ± 1.1 kg/m3
358 K, 4809.3 kPa, Liquid
  mass density: 994.65 ± 1.1 kg/m3
358 K, 4843.6 kPa, Liquid
  mass density: 996.44 ± 1.1 kg/m3
358 K, 4876.3 kPa, Liquid
  mass density: 997.93 ± 1.1 kg/m3
358 K, 4910.7 kPa, Liquid
  mass density: 999.61 ± 1.1 kg/m3
358 K, 4945.1 kPa, Liquid
  mass density: 1001.33 ± 1.1 kg/m3
358 K, 4979.1 kPa, Liquid
  mass density: 1002.85 ± 1.1 kg/m3
358 K, 5028.3 kPa, Liquid
  mass density: 1005.04 ± 1.1 kg/m3
358 K, 5084.7 kPa, Liquid
  mass density: 1007.62 ± 1.1 kg/m3
358 K, 5195.4 kPa, Liquid
  mass density: 1012.4 ± 1.1 kg/m3
358 K, 5249.7 kPa, Liquid
  mass density: 1014.83 ± 1.1 kg/m3
358 K, 5306.8 kPa, Liquid
  mass density: 1017.1 ± 1.1 kg/m3
358 K, 5363.6 kPa, Liquid
  mass density: 1019.45 ± 1.1 kg/m3
358 K, 5416.2 kPa, Liquid
  mass density: 1021.54 ± 1.1 kg/m3
358 K, 5474.6 kPa, Liquid
  mass density: 1023.85 ± 1.1 kg/m3
358 K, 5533.9 kPa, Liquid
  mass density: 1026.1 ± 1.1 kg/m3
358 K, 5592 kPa, Liquid
  mass density: 1028.23 ± 1.1 kg/m3
358 K, 5702.1 kPa, Liquid
  mass density: 1032.29 ± 1.1 kg/m3
358 K, 5755.2 kPa, Liquid
  mass density: 1034.16 ± 1.1 kg/m3
358 K, 5815.3 kPa, Liquid
  mass density: 1036.29 ± 1.1 kg/m3
358 K, 5871.8 kPa, Liquid
  mass density: 1038.22 ± 1.1 kg/m3
358 K, 5932.6 kPa, Liquid
  mass density: 1040.24 ± 1.1 kg/m3
358 K, 5991.6 kPa, Liquid
  mass density: 1042.28 ± 1.1 kg/m3
358 K, 6074.8 kPa, Liquid
  mass density: 1044.98 ± 1.1 kg/m3
358 K, 6112.3 kPa, Liquid
  mass density: 1046.22 ± 1.1 kg/m3
358 K, 6149.2 kPa, Liquid
  mass density: 1047.34 ± 1.1 kg/m3
358 K, 6186.4 kPa, Liquid
  mass density: 1048.47 ± 1.1 kg/m3
358 K, 6224.4 kPa, Liquid
  mass density: 1049.67 ± 1.1 kg/m3
358 K, 6266.3 kPa, Liquid
  mass density: 1050.92 ± 1.1 kg/m3
358 K, 6304.3 kPa, Liquid
  mass density: 1052.13 ± 1.1 kg/m3
358 K, 6342.4 kPa, Liquid
  mass density: 1053.2 ± 1.1 kg/m3
358 K, 6379.7 kPa, Liquid
  mass density: 1054.31 ± 1.1 kg/m3
358 K, 6416.4 kPa, Liquid
  mass density: 1055.29 ± 1.1 kg/m3
358 K, 6452.8 kPa, Liquid
  mass density: 1056.39 ± 1.1 kg/m3
358 K, 6490 kPa, Liquid
  mass density: 1057.54 ± 1.1 kg/m3
358 K, 6563.2 kPa, Liquid
  mass density: 1059.62 ± 1.1 kg/m3
358 K, 6600.1 kPa, Liquid
  mass density: 1060.63 ± 1.1 kg/m3
358 K, 6637.3 kPa, Liquid
  mass density: 1061.72 ± 1.1 kg/m3
358 K, 6674.3 kPa, Liquid
  mass density: 1062.71 ± 1.1 kg/m3
358 K, 6711.6 kPa, Liquid
  mass density: 1063.79 ± 1.1 kg/m3
358 K, 6747.9 kPa, Liquid
  mass density: 1064.77 ± 1.1 kg/m3
358 K, 6784.3 kPa, Liquid
  mass density: 1065.78 ± 1.1 kg/m3
358 K, 6821 kPa, Liquid
  mass density: 1066.78 ± 1.1 kg/m3
358 K, 6857.4 kPa, Liquid
  mass density: 1067.85 ± 1.1 kg/m3
358 K, 6894.7 kPa, Liquid
  mass density: 1068.84 ± 1.1 kg/m3
358 K, 6931.9 kPa, Liquid
  mass density: 1069.87 ± 1.1 kg/m3
358 K, 6970.4 kPa, Liquid
  mass density: 1070.83 ± 1.1 kg/m3
358 K, 7006.9 kPa, Liquid
  mass density: 1071.75 ± 1.1 kg/m3
358 K, 7152.9 kPa, Liquid
  mass density: 1075.52 ± 1.1 kg/m3
358 K, 7190.1 kPa, Liquid
  mass density: 1076.36 ± 1.1 kg/m3
358 K, 7228 kPa, Liquid
  mass density: 1077.43 ± 1.1 kg/m3
358 K, 7266.4 kPa, Liquid
  mass density: 1078.28 ± 1.1 kg/m3
358 K, 7303.8 kPa, Liquid
  mass density: 1079.27 ± 1.1 kg/m3
358 K, 7341.7 kPa, Liquid
  mass density: 1080.24 ± 1.1 kg/m3
358 K, 7379.5 kPa, Liquid
  mass density: 1081.09 ± 1.1 kg/m3
358 K, 7418.9 kPa, Liquid
  mass density: 1082.02 ± 1.1 kg/m3
358 K, 7494.3 kPa, Liquid
  mass density: 1083.92 ± 1.1 kg/m3
358 K, 7532.3 kPa, Liquid
  mass density: 1084.8 ± 1.1 kg/m3
358 K, 7568.4 kPa, Liquid
  mass density: 1085.67 ± 1.1 kg/m3
358 K, 7605.7 kPa, Liquid
  mass density: 1086.46 ± 1.1 kg/m3
358 K, 7643.1 kPa, Liquid
  mass density: 1087.34 ± 1.1 kg/m3
358 K, 7680.1 kPa, Liquid
  mass density: 1088.21 ± 1.1 kg/m3
358 K, 7718 kPa, Liquid
  mass density: 1089.17 ± 1.1 kg/m3
358 K, 7755.4 kPa, Liquid
  mass density: 1089.97 ± 1.1 kg/m3
358 K, 7792.1 kPa, Liquid
  mass density: 1090.77 ± 1.1 kg/m3
358 K, 7828.3 kPa, Liquid
  mass density: 1091.56 ± 1.1 kg/m3
358 K, 7903.4 kPa, Liquid
  mass density: 1093.29 ± 1.1 kg/m3
358 K, 7941.2 kPa, Liquid
  mass density: 1094.08 ± 1.1 kg/m3
358 K, 7980.6 kPa, Liquid
  mass density: 1094.93 ± 1.1 kg/m3
358 K, 8017.9 kPa, Liquid
  mass density: 1095.72 ± 1.1 kg/m3
358 K, 8056.1 kPa, Liquid
  mass density: 1096.58 ± 1.1 kg/m3
358 K, 8093.2 kPa, Liquid
  mass density: 1097.39 ± 1.1 kg/m3
358 K, 8130.7 kPa, Liquid
  mass density: 1098.19 ± 1.1 kg/m3
358 K, 8167.5 kPa, Liquid
  mass density: 1098.98 ± 1.1 kg/m3
358 K, 8204.2 kPa, Liquid
  mass density: 1099.77 ± 1.1 kg/m3
358 K, 8277.6 kPa, Liquid
  mass density: 1101.37 ± 1.1 kg/m3
358 K, 8354.7 kPa, Liquid
  mass density: 1102.88 ± 1.1 kg/m3
358 K, 8391 kPa, Liquid
  mass density: 1103.6 ± 1.1 kg/m3
358 K, 8427.7 kPa, Liquid
  mass density: 1104.39 ± 1.1 kg/m3
358 K, 8465.5 kPa, Liquid
  mass density: 1105.17 ± 1.1 kg/m3
358 K, 8503.3 kPa, Liquid
  mass density: 1105.96 ± 1.1 kg/m3
358 K, 8541.1 kPa, Liquid
  mass density: 1106.74 ± 1.1 kg/m3
358 K, 8614.7 kPa, Liquid
  mass density: 1108.07 ± 1.1 kg/m3
358 K, 8651.4 kPa, Liquid
  mass density: 1108.96 ± 1.1 kg/m3
358 K, 8689.1 kPa, Liquid
  mass density: 1109.62 ± 1.1 kg/m3
358 K, 8725.5 kPa, Liquid
  mass density: 1110.44 ± 1.1 kg/m3
358 K, 8762.8 kPa, Liquid
  mass density: 1111.12 ± 1.1 kg/m3
358 K, 8836.9 kPa, Liquid
  mass density: 1112.57 ± 1.1 kg/m3
358 K, 8873.4 kPa, Liquid
  mass density: 1113.15 ± 1.1 kg/m3
358 K, 8910.1 kPa, Liquid
  mass density: 1113.92 ± 1.1 kg/m3
358 K, 8946.4 kPa, Liquid
  mass density: 1114.65 ± 1.1 kg/m3
358 K, 8982.6 kPa, Liquid
  mass density: 1115.32 ± 1.1 kg/m3
358 K, 9019.5 kPa, Liquid
  mass density: 1115.96 ± 1.1 kg/m3
358 K, 9058.4 kPa, Liquid
  mass density: 1116.68 ± 1.2 kg/m3
358 K, 9094.5 kPa, Liquid
  mass density: 1117.44 ± 1.2 kg/m3
358 K, 9170.1 kPa, Liquid
  mass density: 1118.78 ± 1.2 kg/m3
358 K, 9207.6 kPa, Liquid
  mass density: 1119.39 ± 1.2 kg/m3
358 K, 9244 kPa, Liquid
  mass density: 1120.02 ± 1.2 kg/m3
358 K, 9318.1 kPa, Liquid
  mass density: 1121.42 ± 1.2 kg/m3
358 K, 9355.8 kPa, Liquid
  mass density: 1122.09 ± 1.2 kg/m3
358 K, 9393.2 kPa, Liquid
  mass density: 1122.82 ± 1.2 kg/m3
358 K, 9429.9 kPa, Liquid
  mass density: 1123.38 ± 1.2 kg/m3
358 K, 9506 kPa, Liquid
  mass density: 1124.84 ± 1.2 kg/m3
358 K, 9543.2 kPa, Liquid
  mass density: 1125.38 ± 1.2 kg/m3
358 K, 9579.6 kPa, Liquid
  mass density: 1126.21 ± 1.2 kg/m3
358 K, 9653.1 kPa, Liquid
  mass density: 1127.35 ± 1.2 kg/m3
358 K, 9689.3 kPa, Liquid
  mass density: 1128.07 ± 1.2 kg/m3
358 K, 9728 kPa, Liquid
  mass density: 1128.56 ± 1.2 kg/m3
358 K, 9764.4 kPa, Liquid
  mass density: 1129.27 ± 1.2 kg/m3
358 K, 9801.8 kPa, Liquid
  mass density: 1129.98 ± 1.2 kg/m3
358 K, 9839.1 kPa, Liquid
  mass density: 1130.57 ± 1.2 kg/m3
358 K, 9875.2 kPa, Liquid
  mass density: 1131.06 ± 1.2 kg/m3
358 K, 9913 kPa, Liquid
  mass density: 1131.87 ± 1.2 kg/m3
358 K, 9951.5 kPa, Liquid
  mass density: 1132.43 ± 1.2 kg/m3
358 K, 9988 kPa, Liquid
  mass density: 1133.16 ± 1.2 kg/m3
358.16 K, 4.9 kPa, Fluid (supercritical or subcritical phases)
  mass density: 0.14 ± 0.03 kg/m3
358.16 K, 5.8 kPa, Fluid (supercritical or subcritical phases)
  mass density: 0.15 ± 0.03 kg/m3
358.16 K, 6.2 kPa, Fluid (supercritical or subcritical phases)
  mass density: 0.17 ± 0.03 kg/m3
